# Measured values as given in US10729710B2, “Catecholamine prodrugs for use in the treatment of Parkinson's disease” (H. Lundbeck A/S, priority 2017, dated 2020).
# Counter-ions that a name gives are not always drawn.
# Columns and labels:
# [1] = male, Han Wistar, rat, in vivo, po, 4 h
# Procedure: (§1) Plasma was placed on water-ice following collection. Final storage at approximately −70° C.
# Mass spectrometer (UPCLC-MS/MS) Waters Acquity I-Class-Waters Xevo TQ-S. Analytical column Acquity HSS T3 C18 50×2.1 mm, 1.8 μm. Mobile phase A: 10 mM NH4-Formate 0.2% formic acid:Acetonitril (95:5). Mobile phase B: 10 mM NH4-Formate 0.2% formic acid:Acetonitril (5:95). Gradient run from 95/5% to 5/95% in 2.40 min. Flow rate 0.3 mL/min. MRM detection of test items and the added analytical standards
# The rats had unrestricted access to the diet. Male Han Wistar rats were administered a single dose of apomorphine either subcutaneously or orally by gavage, or administered a single dose of apormorphine conjugates orally by gavage.
# human 5-HT2B receptor [2] = molecular target: T1, human 5-HT2B receptor (Homo sapiens (Human), UniProt P41595); assay: 5-HT2B agonist activity assay (IP1 production, HTRF); type: cell-based; conditions: read-out: 5-HT2B Emax
# T1 sequence (P41595 whole entry): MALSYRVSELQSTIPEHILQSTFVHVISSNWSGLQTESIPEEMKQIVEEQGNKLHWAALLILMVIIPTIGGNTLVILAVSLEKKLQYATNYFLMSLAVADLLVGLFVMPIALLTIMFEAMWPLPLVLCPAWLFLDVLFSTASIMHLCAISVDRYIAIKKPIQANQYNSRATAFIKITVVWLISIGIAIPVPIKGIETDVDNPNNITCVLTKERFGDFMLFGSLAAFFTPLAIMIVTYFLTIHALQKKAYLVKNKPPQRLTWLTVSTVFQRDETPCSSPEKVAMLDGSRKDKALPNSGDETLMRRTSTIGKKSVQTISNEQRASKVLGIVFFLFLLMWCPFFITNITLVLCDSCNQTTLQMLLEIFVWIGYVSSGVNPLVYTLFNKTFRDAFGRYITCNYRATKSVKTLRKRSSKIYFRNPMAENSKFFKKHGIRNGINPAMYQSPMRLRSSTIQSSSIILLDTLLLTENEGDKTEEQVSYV
# Procedure: Evaluation of the agonist activity of compounds (I), (Ia) and (Ib) at the human 5-HT2B receptor was performed by Eurofins/Cerep (France) measuring the compound effects on inositol monophosphate (IP1) production using the HTRF detection method. Briefly, the human 5-HT2B receptor was expressed in transfected CHO cells. The cells were suspended in a buffer containing 10 mM Hepes/NaOH (pH 7.4), 4.2 mM KCl, 146 mM NaCl, 1 mM CaCl2, 0.5 mM MgCl2, 5.5 mM glucose and 50 mM LiCl, then distributed in microplates at a density of 4100 cells/well and incubated for 30 min at 37° C. in the presence of buffer (basal control), test compound or reference agonist. For stimulated control measurement, separate assay wells contained 1 μM 5-HT. Following incubation, the cells were lysed and the fluorescence acceptor (fluorophen D2-labeled IP1) and fluorescence donor (anti-IP1 antibody labeled with europium cryptate) were added. After 60 min at room temperature, the fluorescence transfer was measured at lambda(Ex) 337 nm and lambda(Em) 620 and 665 nm using a microplate reader (Rubystar, BMG). The IP1 concentration was determined by dividing the signal measured at 665 nm by that measured at 620 nm (ratio). The results were expressed as a percent of the control response to 1 μM 5-HT. The standard reference agonist was 5-HT, which was tested in each experiment at several concentrations to generate a concentration-response curve from which its EC50 value is calculated as described above for dopamine functional assays.
# [3] = Liu et al., Bioorganic Med. Chem. (2008); cited from earlier work
# human D2 receptor = human D2 receptor (Homo sapiens (Human), UniProt P14416); assay: Dopamine D2 receptor agonism, calcium mobilization assay; type: cell-based; conditions: normalized to 1 μM dopamine = 100%
# Sequence of human D2 receptor (P14416 whole entry): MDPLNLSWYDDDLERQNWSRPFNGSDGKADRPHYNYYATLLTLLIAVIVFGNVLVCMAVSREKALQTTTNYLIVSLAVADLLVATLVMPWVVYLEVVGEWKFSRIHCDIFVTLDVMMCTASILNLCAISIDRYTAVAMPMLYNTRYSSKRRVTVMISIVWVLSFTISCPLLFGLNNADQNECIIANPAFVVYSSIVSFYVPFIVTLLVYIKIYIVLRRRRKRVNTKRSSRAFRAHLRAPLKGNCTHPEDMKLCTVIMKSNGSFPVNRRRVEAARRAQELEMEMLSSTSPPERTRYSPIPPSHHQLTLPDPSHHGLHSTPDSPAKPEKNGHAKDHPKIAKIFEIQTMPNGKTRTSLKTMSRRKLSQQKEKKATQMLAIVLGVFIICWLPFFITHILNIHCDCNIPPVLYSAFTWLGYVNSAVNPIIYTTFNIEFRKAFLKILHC
# Procedure: Dopamine D2 receptor agonism was measured using a calcium mobilization assay protocol developed by HD Biosciences (China). Briefly, HEK293/G15 cells expressing human D2 receptor were plated at a density of 15000 cells/well in clear-bottomed, Matrigel-coated 384-well plates and grown for 24 hrs at 37° C. in the presence of 5% CO2. The cells were incubated with calcium-sensitive fluorescent dye, Fluo8, for 60-90 minutes at 37° C. in the dark. Test compounds were prepared at 3-fold concentrated solution in 1×HBSS buffer with Ca^2+ and Mg^2+. Calcium Flux signal was immediately recorded after compounds were added from compound plate to cell plate at FLIPR (Molecular Devices). The fluorescence data were normalized to yield responses for no stimulation (buffer) and full stimulation (1 μM of dopamine) of 0% and 100% stimulation, respectively. Test compound potency (EC50) was estimated by nonlinear regression using the sigmoidal dose-response (variable slope) using Xlfit 4 (IDBS, Guildford, Surrey, UK, model 205). y=(A+((B−A)/(1+((C/x)^D)))) where y is the normalized ratio measurement for a given concentration of test compound, x is the concentration of test compound, A is the estimated efficacy at infinite compound dilution, and B is the maximal efficacy. C is the EC50 value and D is the Hill slope coefficient. EC50 estimates were obtained from independent experiment and the logarithmic average was calculated.
# human D1 receptor = human D1 receptor (Homo sapiens (Human), UniProt P21728); assay: Dopamine D1 receptor agonism, HTRF cAMP assay; type: cell-based; conditions: normalized to 30 uM dopamine = 100%
# Sequence of human D1 receptor (P21728 whole entry): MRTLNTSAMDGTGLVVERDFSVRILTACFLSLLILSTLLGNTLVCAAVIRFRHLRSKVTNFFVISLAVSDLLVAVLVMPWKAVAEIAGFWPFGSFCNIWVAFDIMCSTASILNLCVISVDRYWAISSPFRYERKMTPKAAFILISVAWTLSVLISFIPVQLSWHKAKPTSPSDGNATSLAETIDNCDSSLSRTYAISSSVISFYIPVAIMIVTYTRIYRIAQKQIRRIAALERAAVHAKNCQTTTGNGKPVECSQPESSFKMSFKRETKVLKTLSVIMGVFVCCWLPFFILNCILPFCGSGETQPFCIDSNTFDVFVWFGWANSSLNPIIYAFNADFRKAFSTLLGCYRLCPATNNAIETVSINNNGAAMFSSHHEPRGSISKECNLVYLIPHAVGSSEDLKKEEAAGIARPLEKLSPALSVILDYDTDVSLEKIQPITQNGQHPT
# Procedure: Dopamine D1 receptor agonism was measured using a HTRF cAMP from CisBio using the protocol developed by HD Biosciences (China). Briefly, the assay is a homogeneous time resolved-fluorescence resonance energy transfer (HTRF) assay that measures production of cAMP by cells in a competitive immunoassay between native cAMP produced by cells and cAMP-labeled with XL-665. A cryptate-labeled anti-cAMP antibody visualizes the tracer. The assay was performed in accordance with instructions from manufacturer.
# Test compounds were added to wells of microplates (384 format). HEK-293 cells expressing the human D1 receptor were plated at 1000 cells/well and incubated 30 min at room temperature. cAMP-d2 tracer was added to wells and followed by addition of Anti-cAMP antibody-cryptate preparation and incubated for 1 h at room temperature in dark. HTRF cAMP was measured by excitation of the donor with 337 nm laser (the “TRF light unit”) and subsequent (delay time 100 microseconds) measurement of cryptate and d2 emission at 615 nm and 665 nm over a time window of 200 microseconds with a 2000 microseconds time window between repeats/100 flashes). HRTF measurements were performed on an Envision microplate reader (PerkinElmer). The HTRF signal was calculated as the emission-ratio at 665 nm over 615 nm. The HTRF ratio readout for test compounds was normalized to 0% and 100% stimulation using control wells with DMSO-solvent or 30 uM dopamine. Test compound potency (EC50) was estimated by nonlinear regression using the sigmoidal dose-response (variable slope) using Xlfit 4 (IDBS, Guildford, Surrey, UK, model 205). y=(A+((B−A)/(1+((C/x)^D)))) where y is the normalized HTRF ratio measurement for a given concentration of test compound, x is the concentration of test compound, A is the estimated efficacy at infinite compound dilution, and B is the maximal efficacy. C is the EC50 value and D is the Hill slope coefficient. EC50 estimates were obtained from an independent experiment and the logarithmic average was calculated. Dopamine D2 Receptor Agonism
# hepatocytes from rat = assay: Conversion to compound (I) in rat hepatocytes; type: in vitro ADME; conditions: 1 μg/mL, 37° C., 0.25-60 minutes, FIG. 7a
# Procedure: (§2) The cell concentration at incubation was 1×10^6 viable cells/mL. The incubations were performed in glass tubes at 37° C. with a total incubation volume of 3.5 mL and with duplicate incubations for each test item. The 3.5 mL of hepatocyte suspension was equilibrated for 10 minutes in a water bath set to 37° C. where after the incubations were initiated by adding 3.5 μL of a stock solution of the test item in DMSO (Dimethyl sulfoxide) and gently inverting the tubes. The final solvent concentration in the incubations was 0.1% DMSO. Samples of 600 μL were withdrawn from the incubations at the pre-determined time points of 0.25, 5, 15, 30 and 60 minutes after ensuring homogeneity of hepatocyte suspensions. The withdrawn volume was added to 1 mL Nunc cryo tubes on wet ice containing 60 μL of ice cold ascorbic acid (100 mg/mL) and 30 μL of ice cold 100 mM saccharic acid 1.4-lactone in 0.5 M citric acid. The tubes were mixed and 35 μL of a solution of ice cold 20% formic acid was added. The tubes were mixed thoroughly and stored at −80° C. awaiting analysis. Analysis method and Instrumentation used for analysis of (I) from dosing (Id-ia), (Id-ib), (Id-iia) and (Id-iib), were the one described in Examples 4 and 5 below in the section “Instrumentation used for analysis of compound (I) from dosing of compounds (Ic), (Id-ia), (Id-ib), (Id-iia), (Id-iib), (Id-iab) and (Id-iiab).”
# (§3) Analysis method and Instrumentation used for analysis of (I) from dosing (Id-iab) and (Id-iiab) consisted of mixing equal aliquots of the samples and precipitation solution (acetonitrile (MeCN) with 10% methanol (MeOH) and 1% formic acid), followed by centrifugation at 4° C. at 16000 g for 10 minutes. Supernatants were collected and analysed by LC-MS/MS. Mass spectrometer: Waters Acquity—Waters Xevo TQ-MS. Analytical column: Acquity UPLC HSS T3, 100×2.1 mm, 1.8 μm. Mobile phase A: 0.2% formic acid in water. Mobile phase B: 0.2% formic acid in acetonitrile. Gradient run from 95/5% to 60/40 in 5 min. Flow rate 0.3 mL/min. MRM monitoring of (I) in the study samples and in the analytical standards.
# human 5-HT2B receptor [4] = molecular target: T1, human 5-HT2B receptor; assay: 5-HT2B radioligand binding assay ([125I](±)DOI); conditions: 0.2 nM [125I](±)DOI, read-out: 5-HT2B binding affinity (% inhibition of control, specific binding at concentration indicated)
# Procedure: Membrane homogenates prepared from CHO cells expressing the human 5HT2B receptor were incubated for 60 min at room temperature with 0.2 nM [125I](±)DOI (1-(4-iodo-2, 5-dimethoxyphenyl)propan-2-amine) in the absence or presence of the test compound in a buffer containing 50 mM Tris-HCl (pH 7.4), 5 mM MgCl2, 10 μM pargyline and 0.1% ascorbic acid. Nonspecific binding is determined in the presence of 1 μM (±)DOI. Following incubation, the samples were filtered rapidly under vacuum through glass fiber filters (GF/B, Packard) presoaked with 0.3% polyethyleneimine (PEI) and rinsed several times with ice-cold 50 mM Tris-HCl using a 96-sample cell harvester (Unifilter, Packard). The filters were dried and counted for radioactivity in a scintillation counter (Topcount, Packard) using a scintillation cocktail (Microscint 0, Packard). The results are expressed as a percent inhibition of the control radioligand specific binding. The standard reference compound was (±)DOI, which was tested in each experiment at several concentrations to obtain a competition curve from which its IC50 is calculated.
# [5] = PK experiments in rats: plasma compound (I) after oral dosing of prodrugs; type: in vivo, Han Wistar rats; conditions: Wistar rats, FIG. 2, doses equal to 287 μg/kg of compound (I)
# Procedure: as §1
# Mobile phase B: Acetonitrile. […] Flow rate 0.5 mL/min.
# The rats had unrestricted access to the diet.
# Mobile phase B: Acetonitrile+0.2% formic acid. […] Flow rate 0.3 mL/min.
# Han Wistar rats were supplied by Envigo, UK. […] The rats received a standard laboratory diet Teklad 2014C. The rats had unrestricted access to the diet.
# hepatocytes from human = assay: Conversion to compound (I) in human hepatocytes; type: in vitro ADME; conditions: 1 μg/mL, 37° C., 0.25-60 minutes, FIG. 7b
# Procedure: as §2, §3
# [6] = Conversion to compound (I) in fresh human blood; type: in vitro ADME; conditions: fresh blood 37° C., 1 μg/mL, 0-60 minutes, FIG. 8b
# Procedure: (§4) Conversion of (Id-ia), (Id-ib), (Id-iia) and (Id-iib) in human blood (average of 3 donors) and rat blood (average of 45 donors) to (I) was shown in fresh blood at 37° C. spiked with 1 μg/mL of (Id-ia), (Id-ib), (Id-iia) and (Id-iib) separately, (I) was measured at 0, 5, 15, 30 and 60 minutes in isolated plasma. Analysis method and Instrumentation as described in Examples 4 and 5 below in the section “Instrumentation used for analysis of compound (I) from dosing of compounds (Ic), (Id-ia), (Id-ib), (Id-iia), (Id-iib), (Id-iab) and (Id-iiab).”
# [7] = Conversion to compound (I) in fresh rat blood; type: in vitro ADME; conditions: fresh blood 37° C., 1 μg/mL, 0-60 minutes, FIG. 8a
# Procedure: as §4
structure (smiles),measurement,setting,value
"CN1CCc2cccc3c2[C@H]1Cc1ccc(O[C@@H]2O[C@H](C(=O)O)[C@@H](O)[C@H](O)[C@H]2O)c(O)c1-3 [(2S,3S,4S,5R,6S)-6-[[(6aR)-11-hydroxy-6-methyl-5,6,6a,7-tetrahydro-4H-dibenzo[de,g]quinolin-10-yl]oxy]-3,4,5-trihydroxy-tetrahydropyran-2-carboxylic acid]",apomorphine in plasma at one time point,[1],916 pg/mL
"CCCN1CCC[C@@H]2Cc3c(ccc(O)c3O)C[C@H]21 [(I), (4aR,10aR)-1-n-Propyl-1,2,3,4,4a,5,10,10a-octahydro-benzo[g]quinoline-6,7-diol, reference compound]",Emax,human 5-HT2B receptor [2],50%
same,oral bioavailability (in words),[3],low oral bioavailability
same,Emax,human D2 receptor,91%
same,Emax,human D1 receptor,99%
"CCCN1CCC[C@@H]2Cc3c(ccc(O[C@@H]4O[C@H](C(=O)O)[C@@H](O)[C@H](O)[C@H]4O)c3O[C@@H]3O[C@H](C(=O)O)[C@@H](O)[C@H](O)[C@H]3O)C[C@H]21 [(Id-iab), (2S,2′S,3S,3′S,4S,4′S,5R,5′R,6S,6′S)-6,6′-(((4aR,10aR)-1-propyl-1,2,3,4,4a,5,10,10a-octahydrobenzo[g]quinoline-6,7-diyl)bis(oxy))bis(3,4,5-trihydroxytetrahydro-2H-pyran-2-carboxylic acid)]",conversion to compound (I) in rat hepatocytes,hepatocytes from rat,time dependent conversion to compound (I)
same,inhibition at 10 µM,human 5-HT2B receptor [4],17%
same,plasma profile of compound (I) after oral dosing (in words),[5],slower absorption rate avoiding rapid peak concentrations accompanied by a sustained exposure of compound (I) in plasma
same,conversion to compound (I) in human hepatocytes,hepatocytes from human,time dependent conversion to compound (I)
"CCCN1CCC[C@@H]2Cc3c(ccc(OS(=O)(=O)O)c3O)C[C@H]21 [(Id-iib), (4aR,10aR)-6-hydroxy-1-propyl-1,2,3,4,4a,5,10,10a-octahydrobenzo[g]quinolin-7-yl hydrogen sulfate]",conversion to compound (I) in human blood,[6],time dependent conversion to compound (I)
same,conversion to compound (I) in rat hepatocytes,hepatocytes from rat,time dependent conversion to compound (I)
same,conversion to compound (I) in rat blood,[7],time dependent conversion to compound (I)
same,plasma profile of compound (I) after oral dosing (in words),[5],slower absorption rate avoiding rapid peak concentrations accompanied by a sustained exposure of compound (I) in plasma
same,conversion to compound (I) in human hepatocytes,hepatocytes from human,time dependent conversion to compound (I)
